# pIC50: −log10 of the molar value.
# Experiments:
# Type in all cases: cell-based
# [1] = test system: MDA-MB-231 cells; assay: Cell cycle analysis by flow cytometry (propidium iodide); conditions: 500 nM, 24 h
# Procedure: (§1) Cell cycle analyses and evaluation of apoptosis were performed by flow cytometry using propidium iodide and Annexin V, respectively.
# (§2) For cell cycle analyses, HS578T, BT549 and MDA-MB-231 cells were cultured in 100-mm culture dishes, grown to 70% confluence, and treated with 500 nM Formula (III) for 24 h. Cell monolayers were then incubated in trypsin-EDTA and resuspended in 1 mL of PBS. After three washes with PBS, the cell pellets were resuspended in ice cold 70% ethanol for 2 min and centrifuged 5 min at 1800 rpm. The cell pellets were treated with 1 mL of propidium iodide (PI) staining solution (PBS containing 50 μg/mL of PI, 0.5% Tween 20, 0.1 μg/mL RNase A) (BD Biosciences) and incubated in the dark for 1 h. DNA content and cell cycle analyses were performed by using a FACS canto II flow cytometer and the CellQuest software (BD Biosciences).
# [2] = test system: BT549 cells; assay: as above; conditions: 500 nM, 24 h
# Procedure: as §1, §2
# [3] = test system: HS578T cells; assay: as above; conditions: 500 nM, 24 h
# Procedure: as §1, §2
# [4] = test system: HS578T cells; assay: Western Blot of DNA damage and cell cycle markers; conditions: 500 nM, up to 24 h
# Procedure: Western-blot and phospho-array kits were used for evaluation of signaling intermediates.
# HS578T and BT549 cell lines were grown in DMEM 10% of FBS and at 70% confluence were treated with Formula (III) at 500 nM for 6, 12 and 24 hours. Cells were washed with phosphate-buffered saline (PBS) (137 mM NaCl, 2.7 mM KCl, 8 mM Na2HPO4, 1.5 mM KH2PO4) and lysed in ice-cold lysis buffer (20 mM Tris-HCl [pH 7.0], 140 mM NaCl, 50 mM EDTA, 10% glycerol, 1% Nonidet P-40, 1 μM pepstatin, 1 μg/mL aprotinin, 1 μg/mL leupeptin, 1 mM phenylmethyl sulfonyl fluoride, 1 mM sodium orthovanadate). Lysates were centrifuged at 10000 g at 4° C. for 10 minutes. The protein level in the supernatants was quantified using BCA protein assay (Sigma Aldrich). A total of 50 μg of protein of each sample was used for analysis. Samples were then boiled in electrophoresis sample buffer and placed on 6%-15% sodium dodecyl sulfate-polyacrylamide gel electrophoresis (SDS-PAGE) gels, depending on the molecular weight of the proteins to be analyzed. Briefly, after electrophoresis, proteins in gels were transferred to polyvinylidene difluoride membranes (Millipore Corporation). Membranes were blocked in Tris-buffered saline with Tween (TBST) (100 mM Tris [pH 7.5], 150 mM NaCl, 0.05% Tween 20) containing 1% of bovine serum albumin for 1 h and then incubated overnight with the corresponding antibody. Anti-pS473-AKT and anti-pT308-AKT were purchased from Santa Cruz; Anti-pS6, anti-pSTAT3 and anti-GADPH were purchased from Cell Signalling Technology; Anti-pH3, were purchased from Millipore-Cell Signaling; anti-p-H2AX were purchased from BD Biosciences. After washing with TBST, membranes were incubated with HRP-conjugated anti-mouse or anti-rabbit secondary antibodies (1:5000 dilution) for 1 hour and bands were visualized by using ECL Plus Western Blotting Detection System (GE Healthcare, Buckinghamshire, United Kingdom).
# [5] = test system: HS578T, BT549, MDA-MB-231 and HCC3153 cells; assay: MTT metabolization in a panel of TNBC cell lines
# Procedure: Hs578T, BT549 and MDA-MB-231 were grown in DMEM and HCC3153 in RPMI; both mediums were purchased from Sigma Aldrich, supplemented with 10% FBS, 100 mU/mL penicillin, 100 μg/mL streptomycin and 2 mM L-glutamine, in a 5% CO2 atmosphere at 37° C. These triple negative breast cancer cell lines were obtained from the American Type Culture Collection Cell Biology Collection (ATCC) (Manassas, Va.). The medium was changed every 2 days.
# Cell proliferation and growth experiments were carried out using 3-(4,5-dimethylthiazol-2-yl)-2,5-diphenyltetrazolium bromide (MTT) uptake assays, where MTT is reduced to purple formazan by the mitochondria of living cells. Increase in cell number is detected by augmented MTT metabolization, and decrease in cell number is reflected by a decrease. HS578T, BT549, MDA-MB-231 and HCC3153 cells were plated at a density of 1×10^4 cells per well in 24-well plates and cultured overnight in DMEM supplemented with 10% FBS. The cells were treated with the drug at different concentrations to plot the dose-response curves in all cancer cell lines using in the study. […] After treatment, each well was replaced with 250 μL of fresh medium containing MTT ([…]) and incubated for 1 hour. The medium was then removed and 500 μL of dimethyl sulfoxide was added to each well. The plate was agitated in the dark for 5 minutes to dissolve the MTT-formazan crystals. The absorbance of the samples was recorded at 562 nm in a multi-well plate reader (BMG labtech). Results were plotted as the mean values of quadruplicates from a representative experiment that was repeated at least two independent times.
structure (smiles),measurement,setting,value
C[C@]12O[C@H](C[C@@H](O)[C@H]1O)n1c3ccccc3c3c4c(c5c6ccccc6n2c5c31)C(=O)NC4=O [Formula (III)],increase of cells in G2/M phase,[1],18%
same,increase of cells in G2/M phase,[2],22%
same,increase of cells in G2/M phase,[3],15%
same,Cyclin B and p-Cdc2 levels,[4],increase
same,cyclin D and Cyclin A levels,[4],down-regulated
same,phosphorylated levels of γH2AX,[4],increase in the phosphorylated levels of γH2AX in a time dependent manner
same,phosphorylation of p53 and chk2,[4],induced the phosphorylation of p53 and chk2
same,MTT metabolization,"[5]; 0 to 2 μM after 72 h, 500 nM over 6 days",inhibited the MTT metabolization in a dose and time dependent manner
same,growth inhibition,"[5]; doses in the submicromolar (nanomolar) range, all cell lines studied",more than 80%
same,pIC50,[5]; read-out: IC50 dose (MTT metabolization),6.30

# From patent US9808469B2, “Antitumor activity of multi-kinase inhibitors in triple negative breast cancer” (ENTRECHEM, S.L, priority 2014, dated 2017)
